Biological target: T1, Cholecystokinin receptor type A (Cavia porcellus, UniProt Q63931)
T1 sequence (Q63931 whole entry): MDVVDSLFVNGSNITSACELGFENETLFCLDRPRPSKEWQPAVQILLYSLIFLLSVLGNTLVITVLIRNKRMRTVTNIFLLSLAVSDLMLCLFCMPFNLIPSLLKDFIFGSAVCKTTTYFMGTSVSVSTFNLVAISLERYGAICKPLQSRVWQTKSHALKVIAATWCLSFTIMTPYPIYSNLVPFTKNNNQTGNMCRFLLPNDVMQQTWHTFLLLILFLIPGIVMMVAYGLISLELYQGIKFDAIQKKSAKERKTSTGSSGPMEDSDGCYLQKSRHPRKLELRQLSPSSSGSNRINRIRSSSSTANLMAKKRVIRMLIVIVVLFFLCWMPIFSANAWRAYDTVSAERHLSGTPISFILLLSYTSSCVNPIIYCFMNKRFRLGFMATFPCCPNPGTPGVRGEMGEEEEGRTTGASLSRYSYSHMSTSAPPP
Experiment: In vitro binding affinity for the cholecystokinin type A receptor in guinea pig pancreas assayed using [125I]BH-CCK-8 as radioligand

Row | Structure (SMILES) | IC50 [nM]
1 | Cc1ccc2c(c1)N(CC(=O)NC(C)(C)C)C(=O)[C@@H](NC(=O)Nc1cccc(Cl)c1)C[C@H]2c1ccccc1 | 363
2 | Cc1cccc(NC(=O)N[C@@H]2C[C@H](c3ccccc3)c3ccccc3N(CC(=O)OC(C)(C)C)C2=O)c1 | 50
3 | CC(C)(NC(=O)CN1C(=O)[C@H](NC(=O)Nc2cccc(Cl)c2)C[C@H](c2ccccc2)c2ccccc21)c1ccccc1 | 460
4 | CC(C)(C)NC(=O)CN1C(=O)[C@H](NC(=O)Nc2cccc(Cl)c2)C[C@H](c2ccccc2)c2ccccc21 | 144
5 | Cc1ccc2c(c1)N(CC(=O)NC(C)(C)C)C(=O)[C@H](NC(=O)Nc1cccc(Cl)c1)C[C@@H]2c1ccccc1 (stereo in doubt; 43a) | 130
6 | Cc1ccc2c(c1)N(CC(=O)NC(C)(C)C)C(=O)[C@H](NC(=O)Nc1cccc(Cl)c1)C[C@@H]2C1CCCCC1 | 560
7 | CCC(C)(C)NC(=O)CN1C(=O)[C@H](NC(=O)Nc2cccc(Cl)c2)C[C@H](c2ccccc2)c2ccccc21 | 144
8 | Cc1ccccc1NC(=O)N[C@@H]1C[C@H](c2ccccc2)c2ccccc2N(CC(=O)NC(C)(C)C)C1=O | 1470
9 | Cc1ccc([C@H]2C[C@@H](NC(=O)Nc3cccc(Cl)c3)C(=O)N(CC(=O)NC(C)(C)C)c3cc(C)ccc32)cc1 | 417
10 | CC(C)(C)NC(=O)CN1C(=O)[C@H](NC(=O)Nc2cccc(Cl)c2)C[C@H](c2ccccc2)c2cc(Cl)ccc21 | 287
11 | CC(C)(C)NC(=O)CN1C(=O)[C@H](NC(=O)Nc2cccc(Cl)c2)C[C@H](c2ccccc2)c2ccc(Cl)cc21 | 320
12 | CC(C)(C)NC(=O)CN1C(=O)[C@H](NC(=O)Nc2cccc(Cl)c2)C[C@H](c2cccc(Cl)c2)c2ccccc21 | 69
13 | CC(C)(C)NC(=O)CN1C(=O)[C@H](NC(=O)Nc2cccc(Cl)c2)C[C@H](C2CCCCC2)c2ccccc21 | 171
14 | Cc1cccc(NC(=O)N[C@@H]2N=C(c3ccccc3)c3ccccc3N(C)C2=O)c1 [L-365260] | 86
15 | CC(C)(C)NC(=O)CN1C(=O)[C@@H](NC(=O)Nc2cccc(Cl)c2)C[C@H](C2CCCCC2)c2ccccc21 | > 10000
16 | CN(C(=O)CN1C(=O)[C@H](NC(=O)Nc2cccc(Cl)c2)C[C@H](c2ccccc2)c2ccccc21)C(C)(C)C | 4.2
17 | Cc1ccc2c(c1)[C@@H](c1ccccc1)C[C@@H](NC(=O)Nc1cccc(Cl)c1)C(=O)N2CC(=O)NC(C)(C)C | 317
18 | Cc1ccc2c(c1)N(CC(=O)NC(C)(C)C)C(=O)[C@H](NC(=O)Nc1cccc(Cl)c1)C[C@@H]2C(C)C | 72
19 | Cc1cccc(NC(=O)N[C@@H]2C[C@H](c3ccccc3)c3ccccc3N(CC(=O)NC(C)(C)C)C2=O)c1 | 288
20 | CC(C)(C)NC(=O)CN1C(=O)[C@H](NC(=O)Nc2ccc(Cl)cc2)C[C@H](c2ccccc2)c2ccccc21 | 399
21 | Cc1ccc2c(c1)N(CC(=O)OC(C)(C)C)C(=O)[C@H](NC(=O)Nc1cccc(Cl)c1)C[C@@H]2c1ccccc1 | 34
22 | Cc1ccc2c(c1)N(CC(=O)NC(C)(C)C)C(=O)[C@H](NC(=O)Nc1cccc(Cl)c1)C[C@@H]2Cc1ccccc1 | > 10000
23 | CCc1ccc2c(c1)N(CC(=O)NC(C)(C)C)C(=O)[C@H](NC(=O)Nc1cccc(Cl)c1)C[C@@H]2c1ccccc1 | 71
24 | COc1cccc(NC(=O)N[C@@H]2C[C@H](c3ccccc3)c3ccccc3N(CC(=O)NC(C)(C)C)C2=O)c1 | 166
25 | Cc1ccc(NC(=O)N[C@@H]2C[C@H](c3ccccc3)c3ccccc3N(CC(=O)NC(C)(C)C)C2=O)cc1 | 1140
26 | Cc1cccc2c1N(CC(=O)NC(C)(C)C)C(=O)[C@H](NC(=O)Nc1cccc(Cl)c1)C[C@@H]2c1ccccc1 | 77
27 | CC1(NC(=O)CN2C(=O)[C@H](NC(=O)Nc3cccc(Cl)c3)C[C@H](c3ccccc3)c3ccccc32)CCCCC1 | 467
28 | Cc1ccc2c(c1)N(CC(=O)NC(C)(C)C)C(=O)[C@H](NC(=O)Nc1cccc(Cl)c1)C[C@@H]2c1ccccc1 (stereo in doubt; 4) | 176

— ChEMBL document CHEMBL1127392, “5-Phenyl-3-ureidobenzazepin-2-ones as cholecystokinin-B receptor antagonists” (J Med Chem, 1994)
